From US6031084A, “Azoamide compound” (Wako Pure Chemical Industries, Ltd., priority 1998, dated 2000)

What was measured:
[1] = Measurement of Solubility in various kinds of polar solvents; assay type: physicochemical; conditions: for Solubility in 2-butanol: solvent: 2-butanol; for Solubility in Acetone: solvent: Acetone; for Solubility in Methanol: solvent: Methanol; for Solubility in Tetrahydrofuran: solvent: Tetrahydrofuran; for Solubility in Water: solvent: Water
Method: Solubilities of 2,2'-azobis[N-(butanol-2-yl)-2-methylpropionamide] (hereinafter abbreviated as Present compound 1) obtained by Example 1 and 2,2'-azobis[N-(propanol-2-yl)-2-methylpropionamide] (hereinafter abbreviated as Present compound 2) obtained by Example 2 to various kinds of polar solvent was measured.
The same measurement of solubility as Experiment 1 was conducted except for using of 2,2'-azobis[2-methyl-N-(2-hydroxyethyl)-propionamide] [drawing 9] (hereinafter abbreviated as Known compound 1), 2,2'-azobis {2-methyl-N-[1,1-bis(hydroxymethyl)-2-hydroxyethyl] propionamide} [drawing 10] (hereinafter abbreviated as Known compound 2) and 2,2'-azobis {2-methyl-N-[1,1-bis(hydroxymethyl)ethyl] propionamide} [drawing 11] (hereinafter abbreviated as Known compound 3) in place of Present compound 1.

[2] = 10 hours half life temperature (thermal decomposition); assay type: physicochemical

Structure (SMILES) | Solubility in 2-butanol [1] | Solubility in Acetone [1] | Solubility in Methanol [1] [g] | Solubility in Tetrahydrofuran [1] | Solubility in Water [1] [g] | 10 hours half life temperature [2] [°C] | Solubility in a various kind of polar solvents compared with Known compounds 1, 2 and 3 (in words) [1] | Solubility in rather low polar solvents such as 2-butanol (in words) [1]
CC(CO)(CO)NC(=O)C(C)(C)N=NC(C)(C)C(=O)NC(C)(CO)CO [Known compound 3, 2,2'-azobis {2-methyl-N-[1,1-bis(hydroxymethyl)ethyl]propionamide}] | insoluble | insoluble | 5.18 | insoluble | 0.6 |  |  | 
CC[C@H](CO)NC(=O)C(C)(C)N=NC(C)(C)C(=O)N[C@H](CC)CO [Present compound 1, 2,2'-azobis[N-(butanol-2-yl)-2-methylpropionamide]] | > 10 g | > 10 g | > 10 | > 10 g | > 10 | 84.7 | remarkably higher | soluble

The next lines start with the values.

Solubility in 2-butanol [1] | Solubility in Acetone [1] | Solubility in Methanol [1] [g] | Solubility in Tetrahydrofuran [1] | Solubility in Water [1] [g] | 10 hours half life temperature [2] [°C] | Solubility in a various kind of polar solvents compared with Known compounds 1, 2 and 3 (in words) [1] | Solubility in rather low polar solvents such as 2-butanol (in words) [1] | Structure (SMILES)
insoluble | insoluble | 4.55 | insoluble | 2.4 |  |  |  | CC(C)(N=NC(C)(C)C(=O)NCCO)C(=O)NCCO [Known compound 1, 2,2'-azobis[2-methyl-N-(2-hydroxyethyl)-propionamide]]
< 0.l | 0.3 g | 6.5 | 0.3 g | 0.6 | 83.1 | remarkably higher | soluble | CC(CO)NC(=O)C(C)(C)N=NC(C)(C)C(=O)NC(C)CO (racemic) [Present compound 2, 2,2'-azobis[N-(propanol-2-yl)-2-methylpropionamide]]
insoluble | insoluble | 1.89 | insoluble | 2.0 |  |  |  | CC(C)(N=NC(C)(C)C(=O)NC(CO)(CO)CO)C(=O)NC(CO)(CO)CO [Known compound 2, 2,2'-azobis {2-methyl-N-[1,1-bis(hydroxymethyl)-2-hydroxyethyl]propionamide}]
